# Measurements reported in US20230233617A1, “METHODS FOR DIFFERENTIATING STEM CELLS INTO DOPAMINERGIC PROGENITOR CELLS” (JZ CELL TECHNOLOGIES AB, priority 2020, published 2023).
# How the values were obtained:
# [1] = system: hPSC-derived vMB progenitors; experiment: Neurogenesis and mDA neuron yield in differentiating hPSC cultures (HuCD, TuJ1, TH, GABA immunocytochemistry, electrophysiology); format: cell-based, human
# From the text: A unique feature of mDA neurons is that they originate from initially non-neuronal floor plate (FP) cells at the ventral midline of the MB, and progenitors must acquire neuronal potential prior to differentiation into neurons^30,44. Few markers distinguish between these states, but downregulation of SHH and upregulation pro-neural bHLH proteins over time correlate with this transition^44. […] In RA^2D+SAG cultures at 21 DDC, ˜30% of DAPI^+ cells accounted for HuCD^+ neurons (FIG. 4d) and many of these had initiated expression of TH (FIG. 4c). When we instead used CHIR99021+SAG to specify LMX1A^+/NKX2.1^− vMB progenitors (FIG. 3b), cells initiated neurogenesis at around 17 DDC (FIG. 4c, d) which is consistent with previous studies^9,13. At 21 DDC, HuCD^+ neurons constituted ˜10% of total cells and few neurons expressed TH (FIG. 4c, d).
# TH^+ neurons acquired a progressively more advanced neuronal morphology with a progressive outgrowth of TH^+ axonal processes in RA^2D+SAG cultures between 30-45 DDC (FIG. 4e, g, h; FIG. 8f (Supplementary FIG. 2f)). TH^+ neurons expressed mDA neuron markers LMX1A, LMX1B, FOXA2, NURR1, and OTX2 at 30-35 DDC (FIG. 4e). […] TH^+ neurons also expressed the mature neuronal marker SYNAPTOPHYSIN and the monoaminergic marker VMAT2 (FIG. 40. A subset of cells expressed GIRK2 or CALBINDIN indicating the presence of both A9- and A10-like subtypes of mDA neurons^45 (FIG. 4f). At 35 DDC, ˜80% of neurons expressed TH^+ which corresponded to ˜65% of total DAPI^+ cells (FIG. 4i, j). ˜10% of neurons expressed GABA (FIG. 4i, j), and some of these co-expressed TH (FIG. 10c (Supplementary FIG. 4c)). Only rare neurons expressing 5-HT or the MN marker PERIPHERIN were detected (FIG. 4i, j). High performance liquid chromatography (HPLC) analyses at 42 DDC established that neurons produced and released dopamine (FIG. 4k, I) but not serotonin (5-HT) or noradrenaline (NA) (FIG. 4k). […] Very few cells expressed Ki67 or phospho-histone H3 at 35-40 DDC indicating low mitotic activity after long-term culturing of cells (FIG. 4i). Functional maturation of mDA neurons in vitro can be monitored by determining the time when hPSC-derived mDA neurons acquire spontaneous action potentials, evoked action potentials and voltage-dependent Na^+ and K^+ currents, and these traits were previously reported to be attained after ˜60 days of culture of FACS-enriched mDA neurons (25+36 days: before/after sorting) using current state-of-the-art protocols^7. […] Neurons showing both spontaneous (FIG. 4m) and evoked action potentials (FIG. 4n) could be recorded at 40 DDC.
# 80-90% confluent PSCs cultures were rinsed twice with PBS, treated with EDTA (0.5 mM in PBS) for 5-7 min, and resuspended into single cell suspension in PBS. Cells were spin down at 400 g and resuspended in N2B27 medium (DMEM/F12: Neurobasal (1:1), 0.5×N2 and 0.5×B27 (plus vitamin A) supplements, 1×nonessential amino acids, 1% GlutaMAX, 55 μM β-mercaptoethanol-all from Thermo Fisher Scientific) containing 5 μM SB431542 (Miltenyi Biotech) and 2.5 μM DMH1 (Santa Cruz Biotech) (dual SMAD inhibition), and 10 μM ROCK inhibitor (for the first 48 hours after seeding). Cells were seeded on VTN (2 μg/cm^2) and Fibronectin (FN) (2 μg/cm^2) (Sigma) coated surface at a density of 60,000-80,000 cells/cm^2 for RA- and RA-analogues based experiments, and 20,000 cells/cm^2 for CHIR99021 experiments. SAG1.3 (Santa Cruz Biotechnology), CHIR99021 (Miltenyi Biotech), all-trans RA, 9-cis RA, 13-cis RA, Tazarotenic acid, R115866 (all Sigma), EC23 (Amsbio) were used at concentrations and time points described in the result section. For mDA neuron differentiation (see schematic drawing FIG. 4) neural progenitors were mechanically dissociated at 9 DDC with Stem Cell Passaging Tool (Thermo Fisher Scientific) and seeded at 1:3 ratio in N2B27 medium containing 10 μM ROCK inhibitor (for first 48 hours after dissociation) on VTN and FN coated surfaces. […]
# hPSC-derived NSCs = experiment: Ventral regional identity of hPSC-derived NSCs at 9 DDC in dSMADi+SAG conditions (NKX2.1, LMX1A, PHOX2B, NKX2.2); format: cell-based, human; conditions: 9 DDC
smiles,measurement,setting,value
"CC1=C(/C=C/C(C)=C/C=C/C(C)=C/C(=O)O)C(C)(C)CCC1 [RA, all-trans retinoic acid]","share of cell population that are ventral midbrain dopaminergic progenitor cells (FOXA2, LMX1A, LMX1B, OTX2)","[1]; 14 DDC, immunocytochemistry",about 80%
same,HuCD+ neurons as share of total DAPI+ cells,"[1]; 21 DDC, with SAG",~30%
same,TH+ cells of total DAPI+ cells,"[1]; RA^2D+SAG, 35 DDC",~65%
same,neurons expressing GABA,"[1]; RA^2D+SAG, 35 DDC",~10%
same,neurons expressing TH,"[1]; RA^2D+SAG, 35 DDC, of neurons",~80%
same,culture time to mDA neurons exhibiting mature functional features,"[1]; RA^2D+SAG, spontaneous and evoked action potentials",40 days
same,time of initiation of neurogenesis (first neurons),[1]; with SAG,12 DDC
same,ventral identity of NSCs,hPSC-derived NSCs; RA^1D+SAG,"expressed the FB-specific markers FOXG1, SIX3, SIX6, and LHX2"
same,identity of NSCs,"hPSC-derived NSCs; RA^2D+SAG, 100 nM or 800 nM RA",LMX1A^+/NKX2.1^− NSCs were generated but at lower numbers
same,RA concentration at which the vast majority of NSCs expressed LMX1A+/NKX2.1− vMB-identity,hPSC-derived NSCs; RA^2D+SAG,200 to 400 nM
same,ventral identity of NSCs,hPSC-derived NSCs; RA^2D+SAG,LMX1A^+/LMX1B^+/FOXA2^+/OTX2^+ identity characteristic of vMB mDA neuron progenitors
same,ventral identity of NSCs,hPSC-derived NSCs; RA^3D+SAG or RA^4D+SAG,"expressed HOX genes and the ventral markers NKX2.2, PHOX2B, NKX6.1, and NKX6.2 typical of cranial motor neuron (MN) progenitors of the HB"
same,time at which the 48 hour RA-pulse must be initiated for effective induction of vMB NSC identity,hPSC-derived NSCs; dSMADi+SAG,0-2 DDC
